This is an account of results in publication PMC12084297, “Cytoplasmic connexin43-microtubule interactions promote glioblastoma stem-like cell maintenance and tumorigenicity” (Cell Death & Disease, 2025).

“Also recorded” adds a separate entry of the source.

Series [1] deals with VTC-037 GSCs. The series can be described thus: Gliosphere formation assay, VTC-037 GSCs. The class given is cell-based, human. Particulars: VTC-037, 10, 50 or 100 μM every other day, 2 weeks. The protocol:
(§1) GSCs and PDX GBM22 cells were plated as single cell suspension in low-attachment 96-well plates (GSCs: 100–500 cells per well; GBM22 cells: 500–2000 cells per well), using methods similar to those reported previously. Cells were then treated with peptides every other day. 2 weeks later, gliospheres were observed using phase contrast microscopy on a Revolve microscope (Echo Laboratories). The number of gliospheres was then determined, while the gliosphere size was assessed by diameter measurement. To evaluate stem cell frequency in GSCs, gliosphere formation assay was performed with limiting cell dilutions with cells plated at varying densities in low-attachment 96-well plates. Cells were treated with peptides every other day, and after 2 weeks, gliosphere-positive wells were observed and scored using phase contrast microscopy on a Revolve microscope. The stem cell frequency was analyzed using the online data analysis program ELDA (Extreme Limiting Dilution Analysis).

Series [2] concerns HES1 mRNA. Description: HES1 mRNA by RT-qPCR, VTC-037 GSCs. It is filed as cell-based, human. Particulars: 50 μM, 24 h, compared to antennapedia alone or JM2-scrambled. On the procedure:
(§2) RNA was extracted using the PureLink^TM RNA mini extraction kit (Thermo Fisher) and on-column DNA digestion was completed using PureLink^TM DNase according to the manufacturer’s instructions. RNA was reverse transcribed to generate cDNA using the iScript^TM Reverse Transcription SuperMix for RT-qPCR kit (Bio-Rad Laboratories). Real-time PCR was performed using the SYBR select Master Mix for CFX (Thermo Fisher) in hard-shell 96-well PCR plates (Bio-Rad Laboratories) on a CFX Connect Real Time System (Bio-Rad Laboratories). Primer sequences used were: hNOTCH1_Fwd: 5’-CGCACAAGGTGTCTTCCAG-3’; hNOTCH1_Rev: 5’-CGGCGTGTGAGTTGATGA-3’; hHES1_Fwd: 5’-GGCTGGAGAGGCGGCTAA-3’; hHES1_Rev: 5’-[…]-3’; hHEY1_Fwd: 5’-[…]-3’; hHEY1_Rev: 5’-[…]-3’.
Background: In qPCR the cycle at which signal appears reflects the starting amount.

Series [3] has as its system PDX GBM22 cells. Description: Gliosphere formation assay, PDX GBM22 cells. The class given is cell-based, human. The following applies: 100 μM every other day, 2 weeks. On the procedure:
as §1

The test system of series [4] is normal human astrocytes. Description: MTS viability, human astrocytes. It is filed as cell-based. Particulars: 100 μM, 4 days. The protocol: (§3) Cells were plated in 96-well plates (2000–5000 cells per well) and treated the following day with TMZ (10, 50, or 100 μM), antennapedia, JM2-scrambled, or JM2 (10, 50, or 100 μM). After 4 days, cell viability was monitored following addition of MTS reagent (Promega) according to manufacturer’s instructions. The absorbance at 490 nm was measured using a SpectraMax i3 or iD3 microplate reader (Molecular Devices). For the caspase 3/7 activity assay, cells were plated in 96-well plates (2000 cells per well) and treated with TMZ or peptides as described above. The activity of caspase 3/7 was measured after 48 h using the Caspase-Glo® 3/7 assay (Promega) following the manufacturer’s instructions. Fold change of caspase 3/7 activity was defined as the ratio of caspase 3/7 luminescence in treated cells compared to controls.

For series [5], the system named is normal human astrocytes. Description: Caspase 3/7 activity, human astrocytes. The class given is cell-based. Particulars: 100 μM, 2 days. On the procedure: as §3
Series [6] has as its system VTC-037 GSCs. Description: Limiting dilution analysis (ELDA), VTC-037 GSCs. It is filed as cell-based, human. Particulars: VTC-037, 100 μM every other day, 2 weeks; compared to JM2-scrambled or control. The protocol: as §1
All quantification was performed on experiments repeated at least three times. Statistical analysis was conducted with GraphPad Prism (GraphPad Software). Data were analyzed for significance using Student’s t test, one-way ANOVA with Tukey’s multiple comparisons test, and presented as mean ± SD. […] Statistical significance between experimental groups was determined using chi-square (χ²) tests within the ELDA framework. […]

Series [7] has as its system HEY1 mRNA. The series can be described thus: HEY1 mRNA by RT-qPCR, VTC-001 GSCs. It is filed as cell-based, human. Particulars: 50 μM, 24 h, RT-qPCR (as worded in text; no figure panel described). On the procedure:
as §2

For VFFKGVKDRVKGRSD [JM2], the GSC-dependent gliosphere formation entry in series [1] was “inhibits VTC-001, VTC-034, and VTC-037 GSC-dependent gliosphere formation in a dose-dependent manner”. The “Gliosphere size (diameter)” value in series [1] (n = 4) was “significant decrease in gliosphere size”. In series [1] (n = 6), the Gliosphere number entry is “significant decrease in gliosphere size as assessed by diameter measurement (Fig. 6B), and number”. For the same sequence, the “Hes1 mRNA expression” value in series [2] was “significantly decreased the expression of Notch downstream targets Hes1 and Hey1 at the transcription level”. Also, the “GBM22-derived gliosphere size (diameter)” value in series [3] (n = 5) is given as “significantly decreases GBM22-derived gliosphere size”. Moreover, the GBM22-derived gliosphere number result in series [3] (n = 6) was “significantly decreases GBM22-derived gliosphere size as assessed by diameter measurement (Fig. 8C), and number”. The “Human astrocyte viability (MTS)” value in series [4] was “did not observe a decrease in human astrocyte viability, even at higher JM2 concentrations; also recorded: no toxic effect of JM2 on normal human astrocytes in vitro”. For the same sequence, the “Caspase 3/7 activity in normal human astrocytes” value in series [5] is recorded as “No effect on caspase 3/7”. Moreover, the “GSC frequency / self-renewal (limiting dilution)” value in series [6] is “significant decrease in VTC-001, VTC-034, and VTC-037 GSC frequency”. In addition, in series [7], the “Hey1 mRNA expression” value was “significantly decreased the expression of Notch downstream targets Hes1 and Hey1 at the transcription level”.
